In ChEMBL document CHEMBL1146665 (Bioorg Med Chem Lett, 2004):

Assays:
[1] = biological target: T1, Melatonin receptor type 1B (Homo sapiens, UniProt P49286); assay: Binding affinity towards human melatonin receptor type 1B
T1 sequence (P49286 whole entry): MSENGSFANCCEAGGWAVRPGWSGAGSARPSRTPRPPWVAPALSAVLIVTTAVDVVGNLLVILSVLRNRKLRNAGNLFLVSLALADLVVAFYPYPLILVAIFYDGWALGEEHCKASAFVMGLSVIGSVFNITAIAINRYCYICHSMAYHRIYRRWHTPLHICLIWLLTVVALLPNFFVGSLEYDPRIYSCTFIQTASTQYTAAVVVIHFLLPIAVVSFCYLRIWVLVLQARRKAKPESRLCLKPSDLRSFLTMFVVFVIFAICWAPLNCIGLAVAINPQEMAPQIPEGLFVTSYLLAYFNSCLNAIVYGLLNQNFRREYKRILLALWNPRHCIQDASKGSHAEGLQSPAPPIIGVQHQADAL

[2] = biological target: Melatonin receptor type 1A (Homo sapiens, UniProt P48039); assay: Binding affinity towards human melatonin receptor type 1A
Sequence of Melatonin receptor type 1A (P48039 whole entry): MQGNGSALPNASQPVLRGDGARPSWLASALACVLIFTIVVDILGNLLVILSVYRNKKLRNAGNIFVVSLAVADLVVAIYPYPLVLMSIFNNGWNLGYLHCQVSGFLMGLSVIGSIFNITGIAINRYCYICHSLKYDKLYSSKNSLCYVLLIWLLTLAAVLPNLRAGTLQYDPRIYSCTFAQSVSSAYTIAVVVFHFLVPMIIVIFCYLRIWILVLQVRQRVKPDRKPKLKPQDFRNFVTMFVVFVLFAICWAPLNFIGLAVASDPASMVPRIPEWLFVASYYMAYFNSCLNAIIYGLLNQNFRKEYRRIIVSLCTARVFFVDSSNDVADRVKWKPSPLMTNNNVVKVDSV

NIH3T3 = assay: Inhibition of forskolin-stimulated cAMP accumulation in NIH3T3 cells expressing MT2 receptor; format: functional, cell-based; settings: Mus musculus

CCCC(=O)Nc1ccc(S(=O)(=O)c2cccc(OC)c2)cc1
Ki [1]: 10 nM | Ki [2]: > 500 nM

C/C=C/C(=O)Nc1ccc(Oc2cccc(OC)c2)cc1
Ki [1]: 2.1 nM | Ki [2]: 98 nM

CCCC(=O)Nc1ccc(Nc2cccc3c2CCO3)cc1
Ki [1]: 39 nM | Ki [2]: > 500 nM

C#CCC(=O)Nc1ccc(Oc2cccc(OC)c2)cc1
Ki [1]: 110 nM | Ki [2]: > 500 nM

COc1cccc(Oc2ccc(NC(=O)C(C)C)cc2)c1
Ki [1]: 122 nM | Ki [2]: > 500 nM

CCNC(=O)Nc1ccc(Oc2cccc(OC)c2)cc1
Ki [1]: 250 nM | Ki [2]: > 500 nM

COc1cccc(Oc2ccc(NC(C)=O)cc2)c1
Ki [1]: 4.1 nM | Ki [2]: 84 nM

CCCC(=O)Nc1ccc(Oc2ccc(OC)cc2)cc1
Ki [1]: > 400 nM | Ki [2]: > 500 nM

COc1cccc(Nc2ccc(NC(=O)C(C)C)cc2)c1
Ki [1]: 84 nM | Ki [2]: > 500 nM

CCC(=O)Nc1ccc(N(C)c2cccc(OC)c2)cc1
Ki [1]: 0.17 nM | Ki [2]: 1 nM

CCOC(=O)Nc1ccc(N(C)c2cccc(OC)c2)cc1
Ki [1]: 7.2 nM | Ki [2]: 34 nM

CCCC(=O)Nc1ccc(Sc2cccc(OC)c2)cc1
Ki [1]: 0.19 nM | Ki [2]: 29 nM

COc1cccc(Nc2ccc(NC(C)=O)cc2)c1
Ki [1]: 4.2 nM | Ki [2]: 84 nM

CCCC(=O)Nc1ccc(Oc2ccccc2OC)cc1
Ki [1]: 108 nM | Ki [2]: > 500 nM

CCCC(=O)Nc1ccc(Oc2cccc3c2CCO3)cc1
Ki [1]: 0.68 nM | Ki [2]: 18 nM

COc1cccc(Nc2ccc(NC(=O)C3CC3)cc2)c1
Ki [1]: 64 nM | Ki [2]: 61 nM

CCCC(=O)Nc1ccc(N(C)c2cccc3c2CCO3)cc1
Ki [1]: 0.49 nM | Ki [2]: 36 nM

CCOC(=O)Nc1ccc(Nc2cccc(OC)c2)cc1
Ki [1]: 150 nM | Ki [2]: > 500 nM

CCCC(=O)Nc1ccc(Nc2cccc(OC)c2)cc1
Ki [1]: 0.39 nM | Ki [2]: 31 nM

COc1cccc(Oc2ccc(NC(=O)C3CC3)cc2)c1
Ki [1]: 13 nM | Ki [2]: 99 nM

CCCC(=O)Nc1cccc(Oc2cccc(OC)c2)c1
Ki [1]: 26.8 nM | Ki [2]: > 500 nM

COc1cccc(N(C)c2ccc(NC(C)=O)cc2)c1
Ki [1]: 0.23 nM | Ki [2]: 0.05 nM

CCCC(=O)Nc1ccc(Oc2cccc3c2OCCO3)cc1
Ki [1]: 4.7 nM | Ki [2]: 92 nM

COc1cccc(N(C)c2ccc(NC(=O)C3CC3)cc2)c1
Ki [1]: 4.8 nM | Ki [2]: 12 nM

COCC(=O)Nc1ccc(Oc2cccc(OC)c2)cc1
Ki [1]: 5.9 nM | Ki [2]: 180 nM

CCCC(=O)Nc1ccc(Cc2cccc3c2CCO3)cc1
Ki [1]: 0.71 nM | Ki [2]: 41 nM

CCCC(=O)Nc1ccc(Cc2cccc(OC)c2)cc1
Ki [1]: 0.12 nM | Ki [2]: 10.9 nM

CCCC(=O)Nc1ccc(Cc2cccc3occc23)cc1
Ki [1]: 0.78 nM | Ki [2]: 92 nM

CCC(=O)Nc1ccc(Nc2cccc(OC)c2)cc1
Ki [1]: 1.8 nM | Ki [2]: 61 nM

CCCCC(=O)Nc1ccc(Oc2cccc(OC)c2)cc1
Ki [2]: > 500 nM

CCC(=O)Nc1ccc(Oc2cccc(OC)c2)cc1
Ki [1]: 6.8 nM | Ki [2]: 300 nM

CCCC(=O)Nc1ccc(Oc2cccc(OC)c2)cc1
Ki [1]: 0.75 nM | Ki [2]: 63 nM | EC50 (NIH3T3): 1.07 nM

COc1cccc(Oc2ccc(NC(=O)CC(C)C)cc2)c1
Ki [1]: 15 nM | Ki [2]: > 500 nM

CCCC(=O)Nc1ccc(C(=O)c2cccc(OC)c2)cc1
Ki [1]: 33 nM | Ki [2]: > 500 nM

CCCC(=O)Nc1ccc(N(C)c2cccc(OC)c2)cc1
Ki [1]: 0.1 nM | Ki [2]: 1.1 nM

COc1cccc(N(C)c2ccc(NC(=O)C(C)C)cc2)c1
Ki [1]: 5.5 nM | Ki [2]: 106 nM

CCCC(=O)Nc1ccccc1Oc1cccc(OC)c1
Ki [1]: 130 nM | Ki [2]: > 500 nM
